Series [1] has as its system CCRF/CEM (human leukemia). The arrangement: method as in Boryczka et al. ([2013a], [b]). The note with it: Neg = negative in the concentration used, ref Boryczka et al. ([2013a], [b]); cited from earlier work.
For series [2], the system named is T47D (human breast cancer). Further details: method as in Boryczka et al. ([2013a], [b]). The settings on record: Neg = negative in the concentration used, ref Boryczka et al. ([2013a], [b]); cited from earlier work.
Series [3] deals with P388 (mouse leukemia). The arrangement: method as in Boryczka et al. ([2013a], [b]). The settings on record: murine P388; Neg = negative in the concentration used; ref Boryczka et al. ([2013a], [b]); cited from earlier work.
Series [4] relates to SW707 (human colorectal). The arrangement: method as in Boryczka et al. ([2013a], [b]). The settings on record: Neg = negative in the concentration used, ref Boryczka et al. ([2013a], [b]); cited from earlier work.
The test system of series [5] is HL-60 (human promyelocytic leukemia). Put plainly: Antiproliferative assay in vitro (MTT), HL-60. The note with it: for IC50: Homo sapiens, HL-60 cancer cell line, 96 h exposure, read-out: Cytotoxic activity IC50, HL-60. The series is classed as cell-based. As for the experimental part:
(§1) The tested cell lines were obtained from the American Type Culture Collection (Rockville, Maryland, USA) and maintained at the Cell Culture Collection of the Institute of Immunology and Experimental Therapy (Wrocław, Poland). The cells were seeded in 96-well plates (Sarstedt, USA) at a density of 10^4 cells per well in 100 µL of culture medium overnight. […] The normal mouse fibroblasts BALB3T3 was cultured in Dulbecco’s modified Eagle’s medium (Sigma-Aldrich, Chemie GmbH, Steinheim, Germany) supplemented with 2 mM glutamine (Sigma-Aldrich, Chemie GmbH, Steinheim, Germany) and 10 % fetal calf serum FBS (Sigma-Aldrich, Chemie GmbH, Steinheim, Germany). The all culture media were supplemented with streptomycin (100 µg/mL) and penicillin (100 U/mL) (both antibiotics from Polfa, Tarchomin, Poland). The cell cultures were maintained at 37 °C in humid atmosphere saturated with 5 % CO2. The MTT assay was used for the cytotoxicity screening against leukemia cells growing in suspension culture. This assay was performed after 96 h of the leukemia cells to varying concentrations (ranging from 1 to 100 µg/mL) of the tested substances. The derivatives of betulin were dissolved in 10 % DMSO to concentration of 1 mg/mL, and next diluted in culture medium to reach the required concentrations. […] During the last 3–4 h of incubation 20 µl of MTT solution were added to each well (MTT: 3-(4,5-dimethylthiazol-2-yl)-2,5-diphenyl tetrazolium bromide; stock solution: 5 mg/mL). The pale yellow MTT is reduced to a navy blue formazan in the mitochondria of living cells. At the end of incubation time, 80 µL of the lysing mixture was added to each well (lysing mixture: 225 mL dimethylformamide, 67.5 g sodium dodecyl sulfate and 275 mL of distilled water). After 24 h are formed the crystals of formazan, which are insoluble in aqueous solutions. The formazan crystals had been dissolved. The optical densities were read on a Multiskan RC photometer at 570 nm wavelength. The compounds in given concentration were examined in triplicates in each experiment which was repeated 3–5 times. The results of cytotoxic activity in vitro were expressed as an IC50 in µg/mL.

The subject of series [6] is BALB3T3 normal mouse fibroblasts. The arrangement: method as in Boryczka et al. ([2013a], [b]). The settings on record: murine BALB3T3 normal fibroblasts; Neg = negative in the concentration used; ref Boryczka et al. ([2013a], [b]); cited from earlier work.
Series [7] deals with cyprid larvae of the barnacle Balanus albicostatus. The arrangement: method as in Chen et al., [2011]. The note with it: ref Chen et al., [2011]; cited from earlier work.
Series [8] has as its system mouse melanoma (B16 2F2) cell line. The arrangement: method as in Hata et al., [2002]. The note with it: ref Hata et al., [2002], read-out: anticancer effect IC50, B16 2F2; cited from earlier work.
Series [9] deals with P388 (mouse leukemia). Nature of the series: Antiproliferative assay in vitro (MTT), P388. The settings on record: Mus musculus; murine P388; 96 h exposure; 1 to 100 µg/mL; Neg = negative in the concentration used; read-out: Cytotoxic activity IC50, P388. The series is classed as cell-based. As for the experimental part:
as §1

Series [10] deals with SW707 (human colorectal). Nature of the series: Antiproliferative assay in vitro (SRB), SW707. The series is classed as cell-based. The settings on record: human SW707; 96 h exposure; 1 to 100 µg/mL; Neg = negative in the concentration used; read-out: Cytotoxic activity IC50, SW707. As for the experimental part: (§2) The tested cell lines were obtained from the American Type Culture Collection (Rockville, Maryland, USA) and maintained at the Cell Culture Collection of the Institute of Immunology and Experimental Therapy (Wrocław, Poland). The cells were seeded in 96-well plates (Sarstedt, USA) at a density of 10^4 cells per well in 100 µL of culture medium overnight. […] The normal mouse fibroblasts BALB3T3 was cultured in Dulbecco’s modified Eagle’s medium (Sigma-Aldrich, Chemie GmbH, Steinheim, Germany) supplemented with 2 mM glutamine (Sigma-Aldrich, Chemie GmbH, Steinheim, Germany) and 10 % fetal calf serum FBS (Sigma-Aldrich, Chemie GmbH, Steinheim, Germany). The all culture media were supplemented with streptomycin (100 µg/mL) and penicillin (100 U/mL) (both antibiotics from Polfa, Tarchomin, Poland). The cell cultures were maintained at 37 °C in humid atmosphere saturated with 5 % CO2. This technique as first was described by Skehan et al. in [1990]. The SRB assay was performed after 96 h exposure of the cultured cells to varying concentrations (ranging from 1 to 100 µg/mL) of the tested substances. The reported derivatives as well as betulin 1 were dissolved in 10 % dimethyl sulfoxide (DMSO) to concentration of 1 mg/mL, and next diluted in culture medium to reach the required concentrations. […] The cells fastened to the plastic were fixed mildly layering cold 50 % TCA (trichloroacetic acid, Aldrich-Chemie, Germany) on the top of the culture medium in each well. The plates were incubated at 4 °C for 1 h and then washed five times with tap water. The cells fixed with TCA were stained with 0.4 % sulforhodamine B (SRB, Sigma, Germany) dissolved in 1 % acetic acid (POCH, Gliwice, Poland) for 30 min. The unbound dye was removed by rinsing four times with 1 % acetic acid. The protein-bound dye was extracted with 10 mM unbuffered tris base (POCH, Gliwice, Poland) and then determined the optical density at 540 nm in a computer-interfaced, 96-well microtiter plate reader Multiscan RC photometer (Labsystems, Helsinki, Finland). The compounds in given concentration were examined in triplicates in each experiment which was repeated 3–5 times. The results of cytotoxic activity in vitro were expressed as an IC50 in µg/mL.

Series [11] is described as follows: Antiproliferative assay in vitro (SRB), BALB3T3. In kind it is cell-based, mouse. The note with it: mouse; murine BALB3T3 normal fibroblasts; 96 h exposure; 1 to 100 µg/mL; Neg = negative in the concentration used; read-out: Cytotoxic activity IC50, BALB3T3. As for the experimental part:
as §2

For series [12], the system named is CCRF/CEM (human leukemia). Put plainly: Antiproliferative assay in vitro (MTT), CCRF/CEM. The note with it: human CCRF/CEM; 96 h exposure; 1 to 100 µg/mL; Neg = negative in the concentration used; read-out: Cytotoxic activity IC50, CCRF/CEM. In kind it is cell-based. As for the experimental part: as §1
In series [13] the test system is T47D (human breast cancer). Nature of the series: Antiproliferative assay in vitro (SRB), T47D. The note with it: human T47D; 96 h exposure; 1 to 100 µg/mL; Neg = negative in the concentration used; read-out: Cytotoxic activity IC50, T47D. The series is classed as cell-based. As for the experimental part: as §2

SMILES strings stand for the structures. Converted amounts (≈) assume the structure as drawn.

Consider `C#CC(=O)OC[C@]12CC[C@@H](C(=C)C)C1C1CCC3[C@@]4(C)CC[C@H](O)C(C)(C)C4CC[C@@]3(C)[C@]1(C)CC2` (stereo partly shown) [Compound 5, 28-O-propynoylbetulin], for which the “Cytotoxic activity IC50, CCRF/CEM” value in series [1] is 0.02 ± 0.001 µg/mL. For the same molecule, the “Cytotoxic activity IC50, T47D” value in series [2] was 9.1 ± 1.9 µg/mL. In addition, the “Cytotoxic activity IC50, P388” value in [3] is 0.4 ± 0.1 µg/mL. The “Cytotoxic activity IC50, SW707” value in [4] was 14.9 ± 3.3 µg/mL. In addition, the IC50 in [5] was 0.3 ± 0.004 µg/mL (≈ 0.606 µM). Besides, the “fold potent than betulin 1 against HL-60” value in series [5] (relative to betulin 1, HL-60) turned out to be 24 fold. In addition, the “Cytotoxic activity IC50, BALB3T3” value in [6] is 0.3 ± 0.05 µg/mL.

On to `C=C(C)[C@@H]1CC[C@]2(CO)CC[C@]3(C)[C@H](CC[C@@H]4[C@@]5(C)CCC(=O)C(C)(C)[C@@H]5CC[C@]43C)[C@@H]12` [Betulone 2, lup-20(29)-en-28-ol-3-one], for which the “antifouling activity EC50” value in series [7] is 8.73 µg/mL. Besides, the IC50 in series [8] was 29.3 µM.

Consider `C=C(C)[C@@H]1CC[C@]2(COC(=O)C#Cc3ccccc3)CC[C@]3(C)C(CCC4[C@@]5(C)CC[C@H](O)C(C)(C)C5CC[C@]43C)C12` (stereo partly shown) [Compound 7], for which the “Cytotoxic activity IC50, CCRF/CEM” value in series [1] is 49.0 ± 9.8 µg/mL. Further, the “Cytotoxic activity IC50, T47D” value in series [2] is recorded as “Neg”. In addition, the “Cytotoxic activity IC50, P388” value in series [3] is “Neg”. In addition, the “Cytotoxic activity IC50, SW707” value in series [4] was “Neg”. For the same molecule, the “Cytotoxic activity IC50, BALB3T3” value in series [6] is “Neg”.

For the molecule `C=CC(=O)OC[C@]12CC[C@@H](C(=C)C)C1C1CCC3[C@@]4(C)CC[C@H](O)C(C)(C)C4CC[C@@]3(C)[C@]1(C)CC2` (stereo partly shown) [Compound 4, 28-O-(2-Propenoyl)betulin], the melting point was in the range of 117 to 121 °C. Further, the IC50 in series [9] turned out to be 9.9 ± 5.9 µg/mL (≈ 19.9 µM). Also, in [10], the IC50 was 29.6 ± 4.2 µg/mL (≈ 59.6 µM). In addition, the IC50 at 96 h in [11] was determined as 24.3 ± 6.9 µg/mL (≈ 48.9 µM). Besides, the IC50 in series [5] was determined as 18.8 ± 4.8 µg/mL (≈ 37.8 µM). Moreover, in series [12], the IC50 was determined as 19.6 ± 9.5 µg/mL (≈ 39.5 µM). The IC50 in [13] stood at 7.1 ± 2.7 µg/mL (≈ 14.3 µM).

`C=C(C)[C@@H]1CC[C@]2(COC(=O)C#CC)CC[C@]3(C)C(CCC4[C@@]5(C)CC[C@H](O)C(C)(C)C5CC[C@]43C)C12` (stereo partly shown) [Compound 9, 28-O-(2-Butynoyl)betulin] yielded a melting point of 111 to 113 °C. For the same molecule, in series [9], the IC50 was found to be 2.9 ± 1.4 µg/mL (≈ 5.7 µM). Besides, the IC50 in [10] amounted to 24.3 ± 8.8 µg/mL (≈ 47.8 µM). Further, the IC50 at 96 h in series [11] is 17.4 ± 1.1 µg/mL (≈ 34.2 µM). Further, the IC50 in [5] came out at 24.5 ± 1.9 µg/mL (≈ 48.2 µM). Further, in [12], the IC50 was determined as 2.1 ± 0.3 µg/mL (≈ 4.13 µM). Besides, the IC50 in series [13] worked out at 16.7 ± 5.5 µg/mL (≈ 32.8 µM).

Regarding `C=C(C)[C@@H]1CC[C@]2(COC(=O)CC)CC[C@]3(C)C(CCC4[C@@]5(C)CC[C@H](O)C(C)(C)C5CC[C@]43C)C12` (stereo partly shown) [Compound 3], the “Cytotoxic activity IC50, CCRF/CEM” value in series [1] was 8.1 ± 0.9 µg/mL. In series [2], the “Cytotoxic activity IC50, T47D” value was 12.1 ± 4.4 µg/mL. In series [3], the “Cytotoxic activity IC50, P388” value was 3.3 ± 0.8 µg/mL. In addition, the “Cytotoxic activity IC50, SW707” value in series [4] is 29.2 ± 24.4 µg/mL. The IC50 in [5] came out at 29.3 ± 3.4 µg/mL (≈ 58.7 µM). Further, the “Cytotoxic activity IC50, BALB3T3” value in [6] was 32.3 ± 23.0 µg/mL.

`C=C(C)[C@@H]1CC[C@]2(COC(=O)C=CC)CC[C@]3(C)C(CCC4[C@@]5(C)CC[C@H](O)C(C)(C)C5CC[C@]43C)C12` (stereo partly shown) [Compound 8, 28-O-(2-Butenoyl)betulin]: the melting point fell in the range of 182 to 184 °C. Besides, in series [9], the IC50 came out at 5.1 ± 4.9 µg/mL (≈ 9.98 µM). For the same molecule, the IC50 in [10] was determined as 32 ± 4.2 µg/mL (≈ 62.6 µM). In [11], the IC50 at 96 h came to 25.6 ± 1.8 µg/mL (≈ 50.1 µM). Moreover, the IC50 in [12] came to 28 ± 21.6 µg/mL (≈ 54.8 µM). Also, the IC50 in series [13] worked out at 29.9 ± 9.3 µg/mL (≈ 58.5 µM).
